Source: patent US8129371B2, “Thienopyrimidine and pyrazolopyrimidine compounds and their use as mTOR kinase and PI3 kinase inhibitors” (Wyeth LLC, priority 2007, dated 2012)
Like-named read-outs stand apart in the source and are kept apart here.

How the values were obtained:
Human mTOR (FLAG-TOR) = molecular target: T1, Human mTOR (FLAG-TOR) (Homo sapiens, UniProt P42345); experiment: Human mTOR kinase assay with purified enzyme, DELFIA format; type: biochemical
T1 construct: FLAG
Summary of the method: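 DELFIA readout: Eu-anti-P(T389)-S6K antibody (40 ng/mL, 1 h) on captured His6-S6K from the stopped reaction. Kinase step used purified FLAG-tagged human mTOR with test compound in HEPES (pH 7.4)/MnCl2/DTT buffer, 2 h at room temperature (linear 1–6 h), terminated by EDTA/EGTA.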

PI3K [1] = molecular target: T2, PI3K (Homo sapiens, UniProt P42336); experiment: Fluorescence polarization assay for PI3K; type: biochemical; conditions: read-out: PI3 Kinase α IC50
T2 construct: PI3 Kinase α IC50; other: PI3 Kinase α; other: PI3 Kinase α isoform, fluorescence polarization
T2 sequence (P42336 whole entry, canonical isoform): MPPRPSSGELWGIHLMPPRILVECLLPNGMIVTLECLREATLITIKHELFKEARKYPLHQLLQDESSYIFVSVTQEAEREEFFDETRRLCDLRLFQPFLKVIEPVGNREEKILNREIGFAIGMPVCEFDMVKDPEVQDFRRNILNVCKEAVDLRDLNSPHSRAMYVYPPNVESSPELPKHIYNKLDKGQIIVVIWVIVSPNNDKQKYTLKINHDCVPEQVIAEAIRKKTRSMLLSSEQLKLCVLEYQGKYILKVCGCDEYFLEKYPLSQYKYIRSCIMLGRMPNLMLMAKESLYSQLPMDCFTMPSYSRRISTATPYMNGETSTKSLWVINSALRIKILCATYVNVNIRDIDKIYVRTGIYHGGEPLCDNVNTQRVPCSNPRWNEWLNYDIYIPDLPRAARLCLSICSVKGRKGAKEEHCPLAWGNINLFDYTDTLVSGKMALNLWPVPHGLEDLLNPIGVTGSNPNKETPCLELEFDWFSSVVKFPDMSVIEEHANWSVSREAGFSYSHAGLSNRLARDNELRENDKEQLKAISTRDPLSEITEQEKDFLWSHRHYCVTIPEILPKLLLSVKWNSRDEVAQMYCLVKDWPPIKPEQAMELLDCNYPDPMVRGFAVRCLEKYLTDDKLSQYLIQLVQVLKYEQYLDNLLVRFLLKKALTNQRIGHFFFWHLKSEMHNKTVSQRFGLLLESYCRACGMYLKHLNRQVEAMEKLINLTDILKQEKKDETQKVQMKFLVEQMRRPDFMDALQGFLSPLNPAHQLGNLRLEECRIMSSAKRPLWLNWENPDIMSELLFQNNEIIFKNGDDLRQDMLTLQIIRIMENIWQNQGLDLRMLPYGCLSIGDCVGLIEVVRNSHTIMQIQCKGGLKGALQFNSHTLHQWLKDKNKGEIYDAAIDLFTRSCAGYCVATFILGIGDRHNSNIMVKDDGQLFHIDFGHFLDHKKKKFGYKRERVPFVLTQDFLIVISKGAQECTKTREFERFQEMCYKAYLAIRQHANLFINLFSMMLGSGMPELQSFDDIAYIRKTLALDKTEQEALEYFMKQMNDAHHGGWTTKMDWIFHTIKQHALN
Summary of the method: (§1)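 Fluorescence-polarization competition readout: after 30–60 min of PIP2/ATP turnover in 1% DMSO, a stop mix with GST-GRP (70 nM) and red probe (10 nM) was added.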

PI3K [2] = molecular target: T3, PI3K (Homo sapiens, UniProt P48736); experiment: Fluorescence polarization assay for PI3K; type: biochemical; conditions: read-out: PI3 Kinase γ IC50
T3 construct: PI3 Kinase γ IC50; other: PI3 Kinase γ; other: PI3 Kinase γ isoform, fluorescence polarization
T3 sequence (P48736 whole entry, canonical isoform): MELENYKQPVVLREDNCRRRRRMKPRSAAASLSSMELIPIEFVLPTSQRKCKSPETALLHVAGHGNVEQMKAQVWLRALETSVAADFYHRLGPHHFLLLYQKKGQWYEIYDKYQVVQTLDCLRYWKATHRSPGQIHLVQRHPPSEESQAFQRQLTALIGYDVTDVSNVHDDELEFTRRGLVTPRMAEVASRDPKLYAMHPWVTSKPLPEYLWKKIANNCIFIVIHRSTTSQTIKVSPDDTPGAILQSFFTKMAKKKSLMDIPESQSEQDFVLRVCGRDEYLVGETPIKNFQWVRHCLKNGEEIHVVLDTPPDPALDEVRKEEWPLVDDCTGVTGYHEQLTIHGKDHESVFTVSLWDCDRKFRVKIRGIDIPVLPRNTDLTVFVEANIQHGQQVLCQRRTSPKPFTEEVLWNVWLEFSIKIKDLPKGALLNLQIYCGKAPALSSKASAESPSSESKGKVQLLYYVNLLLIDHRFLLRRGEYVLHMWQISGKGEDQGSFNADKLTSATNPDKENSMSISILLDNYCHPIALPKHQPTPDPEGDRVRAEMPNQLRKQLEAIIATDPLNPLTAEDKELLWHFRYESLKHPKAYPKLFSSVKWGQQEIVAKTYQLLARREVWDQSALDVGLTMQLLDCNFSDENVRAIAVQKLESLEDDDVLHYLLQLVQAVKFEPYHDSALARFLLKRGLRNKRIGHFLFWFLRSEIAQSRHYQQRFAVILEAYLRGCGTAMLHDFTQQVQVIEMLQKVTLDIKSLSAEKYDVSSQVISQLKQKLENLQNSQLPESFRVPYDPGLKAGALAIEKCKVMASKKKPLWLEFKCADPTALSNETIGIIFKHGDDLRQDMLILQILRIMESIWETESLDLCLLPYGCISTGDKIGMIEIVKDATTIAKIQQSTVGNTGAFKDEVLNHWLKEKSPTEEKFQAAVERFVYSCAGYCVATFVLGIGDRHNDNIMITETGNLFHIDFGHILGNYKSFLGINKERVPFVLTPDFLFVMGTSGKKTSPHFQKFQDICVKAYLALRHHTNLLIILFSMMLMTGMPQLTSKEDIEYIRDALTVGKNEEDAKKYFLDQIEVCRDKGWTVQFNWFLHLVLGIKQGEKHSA
Summary of the method: as §1

prostate line LNCap = experiment: In vitro cell culture growth assay (MTS), LNCap; type: cell-based; conditions: Homo sapiens, LNCaP, 72 h, LNCap cells, three days after drug treatment
Summary of the method: (§2)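 Inhibitors were added one day after plating, and viable cells were measured 3 days later by MTS conversion (absorbance 490 nm).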

breast line MDA468 = experiment: In vitro cell culture growth assay (MTS), MDA468; type: cell-based; conditions: Homo sapiens, 72 h, MDA468 cells, three days after drug treatment
Summary of the method: as §2

[3] = purified human mTOR enzyme, DELFIA format
[4] = PI3 Kinase α isoform, fluorescence polarization
[5] = PI3 Kinase γ isoform, fluorescence polarization

| SMILES | IC50 (Human mTOR (FLAG-TOR)) [nM] | IC50 (PI3K [1]; PI3 Kinase α) [nM] | IC50 (PI3K [2]; PI3 Kinase γ) [µM] | IC50 (prostate line LNCap) [nM] | IC50 (breast line MDA468) [nM] | IC50 (Human mTOR (FLAG-TOR); [3]) [nM] | IC50 (PI3K [1]; [4]) [nM] | IC50 (PI3K [2]; [5]) [µM] |
| --- | --- | --- | --- | --- | --- | --- | --- | --- |
| CCn1ncc2c(N3CC4CCC(C3)O4)nc(-c3ccc(NC(=O)Nc4ccc(C)cc4)cc3)nc21 [Example 189, 1-{4-[1-ethyl-4-(8-oxa-3-azabicyclo[3.2.1]oct-3-yl)-1H-pyrazolo[3,4-d]pyrimidin-6-yl]phenyl}-3-(4-methylphenyl)urea] | 0.885 | 849 | 11 | 5 | 20 | – | – | – |
| COCC(COC)n1ncc2c(N3CC4CCC(C3)O4)nc(-c3ccc(NC(=O)Nc4ccncc4)cc3)nc21 [Example 325, 1-(4-{1-[2-methoxy-1-(methoxymethyl)ethyl]-4-(8-oxa-3-azabicyclo[3.2.1]oct-3-yl)-1H-pyrazolo[3,4-d]pyrimidin-6-yl}phenyl)-3-pyridin-4-ylurea] | – | – | – | 2 | 19 | 1.6 | 601 | 4.98 |
| O=C(Nc1ccc(-c2nc(N3CC4CCC(C3)O4)c3cnn(C4CCN(CC(F)(F)F)CC4)c3n2)cc1)OCCO [Example 209, 2-hydroxyethyl (4-{4-(8-oxa-3-azabicyclo[3.2.1]oct-3-yl)-1-[1-(2,2,2-trifluoroethyl)piperidin-4-yl]-1H-pyrazolo[3,4-d]pyrimidin-6-yl}phenyl)carbamate] | 2.25 | 3710 | 4.95 | 40 | 600 | – | – | – |
| CCn1ncc2c(N3CC4CCC(C3)O4)nc(-c3ccc(NC(=O)Nc4ccc(OC)cc4)cc3)nc21 [Example 187, 1-{4-[1-ethyl-4-(8-oxa-3-azabicyclo[3.2.1]oct-3-yl)-1H-pyrazolo[3,4-d]pyrimidin-6-yl]phenyl}-3-(4-methoxyphenyl)urea] | 0.405 | 199 | 3.8 | 1 | 19 | – | – | – |
| O=C(Nc1ccc(-c2nc(N3C4CCC3COC4)c3cnn(CC(F)(F)F)c3n2)cc1)OCCO [Example 266, 2-hydroxyethyl {4-[4-(3-oxa-8-azabicyclo[3.2.1]oct-8-yl)-1-(2,2,2-trifluoroethyl)-1H-pyrazolo[3,4-d]pyrimidin-6-yl]phenyl}carbamate] | 0.615 | 2720 | > 10 | 27 | 180 | – | – | – |
| CCn1ncc2c(N3CC4CCC(C3)O4)nc(-c3ccc(NC(=O)Nc4ccccc4)cc3)nc21 [Example 46, 1-{4-[1-ethyl-4-(8-oxa-3-azabicyclo[3.2.1]oct-3-yl)-1H-pyrazolo[3,4-d]pyrimidin-6-yl]phenyl}-3-phenylurea] | 0.3 | 68 | 1.61 | 0.8 | 12 | – | – | – |
| O=C(Nc1ccc(-c2nc(N3CC4CCC(C3)O4)c3cn[nH]c3n2)cc1)Nc1cccnc1 [Example 91, 1-{4-[4-(8-oxa-3-azabicyclo[3.2.1]oct-3-yl)-1H-pyrazolo[3,4-d]pyrimidin-6-yl]phenyl}-3-pyridin-3-ylurea] | 0.49 | 306 | 2.64 | 500 | 120 | – | – | – |
| CNC(=O)Nc1ccc(-c2nc(N3CC4CCC(C3)O4)c3cnn([C@H]4CC[C@H](O)CC4)c3n2)cc1 (relative stereo) [Example 380, 1-{4-[1-(trans-4-hydroxycyclohexyl)-4-(8-oxa-3-azabicyclo[3.2.1]oct-3-yl)-1H-pyrazolo[3,4-d]pyrimidin-6-yl]phenyl}-3-methylurea] | – | – | – | 20 | 70 | 0.245 | 882 | > 10 |
| CC(C)n1ncc2c(N3CC4CCC(C3)O4)nc(-c3ccc(NC(=O)NC4CC4)cc3)nc21 [Example 142, 1-cyclopropyl-3-{4-[1-isopropyl-4-(8-oxa-3-azabicyclo[3.2.1]oct-3-yl)-1H-pyrazolo[3,4-d]pyrimidin-6-yl]phenyl}urea] | 0.2 | 953 | 5.38 | 1 | 48 | – | – | – |
| COC(=O)N1CCC(n2ncc3c(N4CC5CCC(C4)O5)nc(-c4ccc(NC(=O)NCCF)cc4)nc32)CC1 [Example 10, methyl 4-[6-(4-{[(2-fluoroethyl)carbamoyl]amino}phenyl)-4-(8-oxa-3-azabicyclo[3.2.1]oct-3-yl)-1H-pyrazolo[3,4-d]pyrimidin-1-yl]piperidine-1-carboxylate] | 0.34 | 4930 | 6.59 | 12 | 220 | – | – | – |
| CN(C)CCOc1ccc(NC(=O)Nc2ccc(-c3nc(N4C[C@@H]5C[C@H]4CO5)c4cnn(CC(F)(F)F)c4n3)cc2)cc1 [Example 300, 1-{4-[2-(dimethylamino)ethoxy]phenyl}-3-(4-{4-[(1S,4S)-2-oxa-5-azabicyclo[2.2.1]hept-5-yl]-1-(2,2,2-trifluoroethyl)-1H-pyrazolo[3,4-d]pyrimidin-6-yl}phenyl)urea] | – | – | – | 1 | 12 | 5.5 | 572 | 5.28 |
| O=C(Nc1ccc(-c2nc(N3CC4CCC(C3)O4)c3cnn(CCO)c3n2)cc1)Nc1ccc(N2CCOCC2)cc1 [Example 204, 1-{4-[1-(2-hydroxyethyl)-4-(8-oxa-3-azabicyclo[3.2.1]oct-3-yl)-1H-pyrazolo[3,4-d]pyrimidin-6-yl]phenyl}-3-(4-morpholin-4-ylphenyl)urea] | 0.49 | 274 | 11.3 | 6 | 35 | – | – | – |
| CN1CCN(c2ccc(NC(=O)Nc3ccc(-c4nc(N5C6CCC5COC6)c5cnn(CC(F)(F)F)c5n4)cc3)cc2)CC1 [Example 270, 1-[4-(4-methylpiperazin-1-yl)phenyl]-3-{4-[4-(3-oxa-8-azabicyclo[3.2.1]oct-8-yl)-1-(2,2,2-trifluoroethyl)-1H-pyrazolo[3,4-d]pyrimidin-6-yl]phenyl}urea] | 0.52 | 371 | 9.5 | < 1 | 1 | – | – | – |
| CCOC(=O)N1CCC(n2ncc3c(N4CC5CCC(C4)O5)nc(-c4ccc(NC(=O)Nc5ccn[nH]5)cc4)nc32)CC1 [Example 39, ethyl 4-[4-(8-oxa-3-azabicyclo[3.2.1]oct-3-yl)-6-{4-[(1H-pyrazol-5-ylcarbamoyl)amino]phenyl}-1H-pyrazolo[3,4-d]pyrimidin-1-yl]piperidine-1-carboxylate] | 96 | 5700 | 8.88 | 2600 | 8000 | – | – | – |
| CNC(=O)Nc1ccc(-c2nc(N3CC4CCC(C3)O4)c3cnn(C4CCC5(CC4)OCC(C)(C)CO5)c3n2)cc1 [Example 152, 1-{4-[1-(3,3-dimethyl-1,5-dioxaspiro[5.5]undec-9-yl)-4-(8-oxa-3-azabicyclo[3.2.1]oct-3-yl)-1H-pyrazolo[3,4-d]pyrimidin-6-yl]phenyl}-3-methylurea] | 0.6 | 566 | > 10 | 3 | 180 | – | – | – |
| O=C(Nc1ccc(CCO)cc1)Nc1ccc(-c2nc(N3CC4CCC(C3)O4)c3cnn(CCO)c3n2)cc1 [Example 202, 1-{4-[1-(2-hydroxyethyl)-4-(8-oxa-3-azabicyclo[3.2.1]oct-3-yl)-1H-pyrazolo[3,4-d]pyrimidin-6-yl]phenyl}-3-[4-(2-hydroxyethyl)phenyl]urea] | 0.215 | 44 | 2.16 | 1 | 4 | – | – | – |
| CC(C)(C)OC(=O)N1CCC(n2ncc3c(N4CC5CCC(C4)O5)nc(-c4ccc(NC(=O)Nc5ccccc5)cc4)nc32)CC1 [Example 23, tert-butyl 4-[4-(8-oxa-3-azabicyclo[3.2.1]oct-3-yl)-6-{4-[(phenylcarbamoyl)amino]phenyl}-1H-pyrazolo[3,4-d]pyrimidin-1-yl]piperidine-1-carboxylate] | 0.7 | 888 | > 10 | 40 | 180 | – | – | – |
| COC(=O)N1CCC(n2ncc3c(N4C5CCC4COC5)nc(-c4ccc(NC(=O)Nc5ccc(N6CCN(C)CC6)nc5)cc4)nc32)CC1 [Example 365, methyl 4-{6-[4-({[6-(4-methylpiperazin-1-yl)pyridin-3-yl]carbamoyl}amino)phenyl]-4-(3-oxa-8-azabicyclo[3.2.1]oct-8-yl)-1H-pyrazolo[3,4-d]pyrimidin-1-yl}piperidine-1-carboxylate] | – | – | – | 4 | 12 | 0.795 | 2590 | 4.53 |
| CN(C)CCOc1ccc(NC(=O)Nc2ccc(-c3nc(N4CC5CCC(C4)O5)c4cnn(CCF)c4n3)cc2)cc1 [Example 243, 1-{4-[2-(dimethylamino)ethoxy]phenyl}-3-{4-[1-(2-fluoroethyl)-4-(8-oxa-3-azabicyclo[3.2.1]oct-3-yl)-1H-pyrazolo[3,4-d]pyrimidin-6-yl]phenyl}urea] | 0.835 | 116 | 1.3 | 4 | 9 | – | – | – |
